We go through 39 compounds from patent US8604023B2, “1,4-benzodiazepinone compounds and their use in treating cancer” (The Regents of the University of Michigan, priority 2009, dated 2013).

As a reminder, the EC50 is the concentration at which the effect is half-maximal. A low value points to higher potency in that assay.

The assay deals with Ramos cells. Description: cytotoxicity in Ramos cells. The following applies: Homo sapiens. The class given is cell-based. Here is the method:
The compounds listed in Table 5 were tested for cytotoxicity in Ramos cells. The assay was conducted as described in K. M. Johnson et al. Chemistry & Biology 2005, 12, 485-496.
In the case of `CN1C(=O)C(Cc2ccc3ccccc3c2)N=C(c2csc(CO)n2)c2cc(Cl)ccc21` (stereo not drawn) [Compound V-16], the EC50 was ≤ 5 µM.
As for `Nc1ccc(C2=NC(Cc3ccccc3Cl)C(=O)Nc3ccc(Cl)cc32)cn1` (stereo not drawn) [Compound V-18], the figure is 5 to 25 µM.
`Nc1ccc(C2=NC(Cc3ccc4ccccc4c3)C(=O)Nc3ccc(Cl)cc32)cn1` (stereo not drawn) [Compound V-4] had an EC50 of 5 to 25 µM.
As for `CN1C(=O)C(Cc2ccc3ccccc3c2)N=C(c2cnc(N)cn2)c2cc(Cl)ccc21` (stereo not drawn) [Compound V-3], the figure is ≥ 25 µM.
`Cc1n[nH]c(C)c1C1=NC(Cc2ccccc2Cl)C(=O)Nc2ccc(Cl)cc21` (stereo not drawn) [Compound V-41] gave an EC50 of 5 to 25 µM.
As to `O=C1Nc2ccc(Cl)cc2C(c2ccc(N3CC[C@@H](O)C3)nc2)=NC1Cc1ccccc1Cl` (stereo partly drawn) [Compound V-32], the 50% effective concentration (EC50) was 5 to 25 µM.
As for `O=C1Nc2ccc(Cl)cc2C(c2cn[nH]c2)=NC1Cc1ccc2ccccc2c1` (stereo not drawn) [Compound V-39], the figure is ≤ 5 µM; as for `COCCNc1ccc(C2=NC(Cc3ccccc3Cl)C(=O)Nc3ccc(Cl)cc32)cn1` (stereo not drawn) [Compound V-33], 5 to 25 µM; as for `COCCNc1ccc(C2=N[C@@H](Cc3ccccc3Cl)C(=O)Nc3ccc(Cl)cc32)cn1` [Compound V-34], 5 to 25 µM.
The value for `CN1C(=O)C(Cc2ccc3ccccc3c2)N=C(N2CCC(NC(=O)CN)CC2)c2cc(Cl)ccc21` (stereo not drawn) [Compound V-10] was ≤ 5 µM.
On to `CC(=O)OCC(=O)Nc1ccc(C2=NC(Cc3ccc4ccccc4c3)C(=O)N(C)c3ccc(Cl)cc32)cn1` (stereo not drawn) [Compound V-14], for which the EC50 is ≤ 5 µM.
The value for `CN1C(=O)C(Cc2ccc3ccccc3c2)N=C(N2CCC3(CC2)OCCO3)c2cc(Cl)ccc21` (stereo not drawn) [Compound V-5] was ≤ 5 µM; that for `O=C1Nc2ccc(Cl)cc2C(c2cn[nH]c2)=NC1Cc1ccccc1Cl` (stereo not drawn) [Compound V-37] was 5 to 25 µM.
`CN1C(=O)C(Cc2ccc3ccccc3c2)N=C(c2ccc(NC(=O)CO)nc2)c2cc(Cl)ccc21` (stereo not drawn) [Compound V-15] came in with a half-maximal effective concentration (EC50) of 5 to 25 µM.
In the case of `COc1ccc(C2(O)CCN(C3=NC(Cc4ccc5ccccc5c4)C(=O)Nc4ccc(Cl)cc43)CC2)cc1` (stereo not drawn) [Compound V-8], the half-maximal effective concentration (EC50) was ≤ 5 µM.
As for `Nc1ccc(C2=NC(Cc3ccccc3Cl)C(=O)N(C3CC3)c3ccc(Cl)cc32)cn1` (stereo not drawn) [Compound V-36], the figure is 5 to 25 µM.
The value for `CN1CCN(c2ccc(C3=NC(Cc4ccccc4Cl)C(=O)Nc4ccc(Cl)cc43)cn2)CC1` (stereo not drawn) [Compound V-26] was ≤ 5 µM; that for `O=C1Nc2ccc(Cl)cc2C(c2cnc3[nH]c(=O)[nH]c3c2)=NC1CCc1ccccc1Cl` (stereo not drawn) [Compound V-35] was 5 to 25 µM; that for `O=C1Nc2ccc(Cl)cc2C(c2ccnc(N3CCNCC3)c2)=NC1Cc1ccccc1Cl` (stereo not drawn) [Compound V-25] was 5 to 25 µM.
As for `O=C1Nc2ccc(Cl)cc2C(c2cnc3[nH]c(=O)[nH]c3c2)=NC1Cc1ccccc1Cl` (stereo not drawn) [Compound V-24], the figure is ≤ 5 µM; as for `CC(=O)N1CCN(c2ccc(C3=NC(Cc4ccccc4Cl)C(=O)Nc4ccc(Cl)cc43)cn2)CC1` (stereo not drawn) [Compound V-30], ≤ 5 µM.
Consider `Cc1n[nH]cc1C1=NC(Cc2ccccc2Cl)C(=O)Nc2ccc(Cl)cc21` (stereo not drawn) [Compound V-40], for which the half-maximal effective concentration (EC50) fell in the range of 5 to 25 µM.
As for `O=C1Nc2ccc(Cl)cc2C(c2ccc(N3CCOCC3)nc2)=NC1Cc1ccccc1Cl` (stereo not drawn) [Compound V-28], the EC50 was ≤ 5 µM.
In turn, `Nc1ncc(C2=NC(Cc3ccccc3Cl)C(=O)Nc3ccc(Cl)cc32)cn1` (stereo not drawn) [Compound V-20] registered a half-maximal effective concentration (EC50) of 5 to 25 µM.
Consider `O=C1Nc2ccc(Cl)cc2C(c2ccc(N3CCC(O)CC3)nc2)=NC1Cc1ccccc1Cl` (stereo not drawn) [Compound V-27], for which the half-maximal effective concentration (EC50) was ≤ 5 µM.
As for `O=C1Nc2ccc(Cl)cc2C(c2ccncc2)=NC1Cc1ccccc1Cl` (stereo not drawn) [Compound V-19], the figure is 5 to 25 µM.
As for `CC(=O)Nc1ccc(C2=NC(Cc3ccccc3Cl)C(=O)Nc3ccc(Cl)cc32)cn1` (stereo not drawn) [Compound V-17], the figure is 5 to 25 µM; as for `CN1C(=O)C(Cc2ccc3ccccc3c2)N=C(N2CCC(N)CC2)c2cc(Cl)ccc21` (stereo not drawn) [Compound V-6], 5 to 25 µM.
With `O=C1Nc2ccc(Cl)cc2C(c2ccc(N3CCC(CO)CC3)nc2)=NC1Cc1ccccc1Cl` (stereo not drawn) [Compound V-29], the EC50 was ≤ 5 µM.
As to `O=C1CCN(C2=NC(Cc3ccc4ccccc4c3)C(=O)Nc3ccc(Cl)cc32)CC1` (stereo not drawn) [Compound V-7], the EC50 was 5 to 25 µM.
With `CN1C(=O)C(Cc2ccc3ccccc3c2)N=C(N2CCC(O)CC2)c2cc(Cl)ccc21` (stereo not drawn) [Compound V-1], the EC50 was ≥ 25 µM.
Regarding `Nc1cncc(C2=NC(Cc3ccccc3Cl)C(=O)Nc3ccc(Cl)cc32)c1` (stereo not drawn) [Compound V-22], the EC50 was ≥ 25 µM.
`O=C1Nc2ccc(Cl)cc2C(c2ccc(N3CCCC3)nc2)=NC1Cc1ccccc1Cl` (stereo not drawn) [Compound V-31]: the EC50 is ≤ 5 µM.
Regarding `CN1C(=O)C(Cc2ccc3ccccc3c2)N=C(N2CCC(NC(=O)OC(C)(C)C)CC2)c2cc(Cl)ccc21` (stereo not drawn) [Compound V-9], the half-maximal effective concentration (EC50) is ≥ 25 µM.
In the case of `CC(=O)NC1CCN(C2=NC(Cc3ccc4ccccc4c3)C(=O)N(C)c3ccc(Cl)cc32)CC1` (stereo not drawn) [Compound V-12], the EC50 was 5 to 25 µM.
As for `CN1C(=O)C(Cc2ccc3ccccc3c2)N=C(N2CCC(NC(=O)c3ccccc3)CC2)c2cc(Cl)ccc21` (stereo not drawn) [Compound V-13], the figure is ≥ 25 µM; as for `CN1C(=O)C(Cc2ccc3ccccc3c2)N=C(c2ccc(N)cn2)c2cc(Cl)ccc21` (stereo not drawn) [Compound V-11], ≤ 5 µM; as for `CN1C(=O)C(Cc2ccc3ccccc3c2)N=C(c2ccc(N)nc2)c2cc(Cl)ccc21` (stereo not drawn) [Compound V-2], 5 to 25 µM.
As for `CCc1ccc(CC2N=C(c3cnc(N)nc3)c3cc(Cl)ccc3NC2=O)cc1CC` (stereo not drawn) [Compound V-21], the figure is 5 to 25 µM.
